Measured values: US5536848A, “Bioactive acetogenins and derivatives” (Purdue Research Foundation, priority 1994, dated 1996)
Values after ≈ are worked out from the molar mass of the structure shown. Read-outs that look alike come from different tables or passages of the source.

What was measured:
[1] = tested on: brine shrimp (Artemia salina Leach); test: Brine shrimp lethality test (BST); assay type: in vivo; details: Artemia salina, read-out: BST LC50
Method: (§1) The brine shrimp (Artemia salina Leach) test (BST) was performed as modified to determine LC50 values in μg/ml. Seven-day in vitro cytotoxicity tests against human tumor cell lines were carried out at the Purdue Cancer Center, using standard protocols for A-549 (human lung carcinoma), MCF-7 (human breast carcinoma) and HT-29 (human colon carcinoma) with adriamycin as a positive control. The reported ED50 values in μg/ml (Table 5) were tabulated from the same run in order to facilitate comparison for the SAR's.
(§2) Bioassays. The brine shrimp (Artemia salina Leach) test (BST) was performed as modified. Zhao et al., Phytochemistry, 33, p. 1065 (1993). Seven-day in vitro cytotoxicity tests against human tumor cell lines were carried out at the Purdue Cancer Center, using standard protocols for A-549 (human lung carcinoma), Gu, Z. M.; Fang, X.-P.; Miesbauer, L. R., Smith, D. L.; and McLaughlin, J. L., 30, 31, and 32-Hydroxybullatacinones: Bioactive Terminally-Hydroxylated Annonaceous Acetogenins from Annona bullata., J. Nat. Prod., 1993, 56, 870-876; MCF-7 (human breast carcinoma) McLaughlin, J. L., Chang, C.-J., and Smith, D. L., Simple Bench-Top Bioassays (Brine Shrimp and Potato Discs) for the Discoveries of Plant Antitumor Compounds: A Review of Recent Progress. In Kinghorn, A. D., Balandrin, J. (Eds): "Human Medicinal Agents from Plants", ACS Symposium Series, Washington, D.C., American Chemical Society, 1993, pp. 112-137; and HT-29 (human colon carcinoma), Mclaughlin, J.L., Chang, C.-J., Smith, D.L., "'Bench-Top' Bioassays for the Discovery of Bioactive Natural Products: An Update", in Rahman, Atta-ur- (Ed): "Studies in Natural Product Chemistry", Vol. 9, Amsterdam, Elsevier, 1991, pp. 383-409, with adriamycin as a positive control. The reported values (Table IV) were tabulated from the same run in order to facilitate comparison for the SAR's.
(§3) Bioassay. The extracts, fractions, and isolates were routinely evaluated for lethality to brine shrimp larvae (BST). Cytotoxicities against human solid tumor cells were measured at the Purdue Cell Culture Laboratory, Purdue Cancer Center, for the A-549 lung carcinoma, MCF-7 breast carcinoma, and HT-29 colon adenocarcinoma.
(§4) The brine shrimp lethality test (BST), on newly hatched naupleii, was performed in our laboratory as previously described. McLaughlin, Methods in Plant Biochemistry, Vol. 6, Hostettmann, Academic Press, London, pp. 1-33 (1991). Seven day cytotoxicities against human solid tumor cells were measured at the Cell Culture Laboratory, Purdue Cancer Center, for the A-549 lung carcinoma, MCF-7 breast carcinoma, and HT-29 colon adenocarcinoma. The respiratory functions of rat liver mitochondria (RMB) were measured polarographically by determination of their rates of oxygen consumption after the addition of acetogenins or their derivatives.

[2] = tested on: A-549 (human lung carcinoma); test: Seven-day in vitro cytotoxicity, A-549; assay type: cell-based; details: for IC50: A549, 168 h
Method: as §1, §2, §3, §4

[3] = tested on: MCF-7 (human breast carcinoma); test: Seven-day in vitro cytotoxicity, MCF-7; assay type: cell-based; details: for IC50: MCF7, 168 h
Method: as §1, §2, §3, §4

[4] = tested on: HT-29 (human colon adenocarcinoma); test: Seven-day in vitro cytotoxicity, HT-29; assay type: cell-based; details: for IC50: HT-29, 168 h
Method: as §1, §2, §3, §4

rat liver mitochondria = test: Rat mitochondrial bioassay (RMB), inhibition of oxygen uptake; assay type: biochemical; details: for RMB IC50: Table 17, oxygen consumption of rat liver mitochondria, parent and acetal derivative in the same run; for mitochondrial inhibition: rat liver mitochondria, result in words
Method: as §4
The oxidative phosphorylation pathway (or electron transport chain) is responsible for oxidizing NADH to NAD^+ and producing ATP from ADP and phosphate within the mitochondria. There are five enzyme complexes in this pathway: NADH-ubiquinone reductase (complex I), succinate-ubiquinone reductase (complex II), ubiquinone-cytochrome c reductase (complex III), cytochrome c oxidase (complex IV) and the F0 F1 -ATPase complex (complex V). The end point of the oxidative phosphorylation pathway is the reduction of oxygen (O2) to water in the mitochondria (thus, it is also called respiration), coupled with the synthesis of ATP by complex V. State 4 respiration is the oxidation of substrates in the absence of a phosphate acceptor (e.g., ADP). State 3 respiration occurs when a phosphate acceptor is present and oxygen utilization increases. The ratio of State 3 respiration to State 4 respiration is the respiratory control ratio (RCR).
The process of respiration can be measured by using an oxygen electrode to detect the amount of oxygen present in the assay cell. If respiration is occurring normally, the concentration of oxygen should slowly decrease as it is reduced to water. However, if there is some type of inhibition of oxidative phosphorylation occurring, the oxygen level will no longer decrease at the same rate. This rate of oxygen usage can be visualized by a chart recorder connected to the oxygen electrode. At normal respiration,a decreasing baseline slope will be established. During inhibition, however, the baseline slope should decrease (i.e., the slope will move closer to zero), since the oxygen present is no longer being reduced. In other words, the oxygen concentration in the assay cell is no longer decreasing at the same rate as in normal respiration. Furthermore, inhibition sites at specific complexes can be determined by competitive inhibition studies. This is accomplished by addition of a known inhibitor of, e.g., complex I, followed by the new respiration-inhibiting compound. […] This can be verified by trying inhibitors at other sites and by reversing the order, i.e., adding the new compound and then the known inhibitor.
The method for isolating rat liver mitochondria essentially followed the published methodology. Ahammadsahib et al., Life Sciences, 53, pgs. 1113-1120 (1993). The isolation buffer used for the isolation of mitochondria from rat liver consisted of 4 mM Tris-HC1, 0.5 mM EDTA, and 250 mM sucrose at a pH of 7.4. The isolation buffer was kept at refrigeration temperature at all times by storing on ice during the whole procedure. The rats were supplied by Sprague-Dawley, were male, and weighed approximately 300-320 grams. They were sacrificed with carbon dioxide, and the livers were removed and immediately placed in the isolation buffer on ice. The livers were then rinsed with several washings of cold buffer, cut into pieces, and homogenized. The homogenates were then centrifuged (Sorvall Superspeed RC2-B, 4° C) for 10 minutes at approximately 2000 rpms; the supernatant was next centrifuged for 20 minutes at approximately 9000 rpms. The pellet was reserved and resuspended in 2 ml of assay buffer with a glass pipet. The assay buffer consisted of 100 mM KC1, 5 mM KH2 PO4, 1 mM EDTA, 5 mM glutamate, 1 mM malate, and 20 mM Tris-HCl at a pH of 7.4 and was stored at room temperature. […]

[5] = tested on: HT-29 (human colon adenocarcinoma); test: Seven-day in vitro cytotoxicity, HT-29; assay type: cell-based; details: HT-29, 168 h, read-out: HT-29 LC50, Table 5, same run
[6] = tested on: A2780 human ovarian cancer xenografts; details: 50 μg/kg; athymic mice bearing A2780 human ovarian cancer xenografts; cited from earlier work
[7] = Table 17, seven day cytotoxicity, same run, read-out: A-549 ED50
[8] = Table 17, seven day cytotoxicity, same run, read-out: MCF-7 ED50
[9] = Table 17, seven day cytotoxicity, same run, read-out: HT-29 ED50
[10] = read-out: MCF-7 ED50, Table 17, seven day cytotoxicity, same run
[11] = read-out: HT-29 ED50, Table 17, seven day cytotoxicity, same run
[12] = read-out: MCF-7 LC50, Table 5, seven-day cytotoxicity, same run

Row | SMILES | LC50 ([1]; Table 17, same run) | IC50 [2, 7] | IC50 [3, 8] | IC50 [4, 9] | RMB IC50 (rat liver mitochondria) | IC50 ([2]; read-out: A-549 ED50) | IC50 [3, 10] | other results
1 | CCCCCC[C@H]1CCC[C@@H]([C@H]2CC[C@H]([C@H]3CC[C@@H]([C@@H]4CC[C@@H](CCCCCCCCCC5=C[C@H](C)OC5=O)O4)OCO3)O2)OCO1 [Compound 14, 16,19- and 24,28-bis-formaldehyde acetal derivative] | 10200 ng/mL (≈ 15400 nM) | 1780 ng/mL (≈ 2680 nM) | 1 ng/mL (≈ 1.51 nM) | 0.000289 ng/mL (≈ 0.000436 nM) |  |  |  | 
2 | CCCCCCCCCC[C@H](O)[C@H]1CC[C@H]([C@H](O)CC[C@H](O)[C@@H]2CC[C@@H](CCCCCCC[C@@H](O)CC3=C[C@H](C)OC3=O)O2)O1 [Compound 18, Bullatalicin, reference compound] | 1200 ng/mL (≈ 1880 nM) |  | 262 ng/mL (≈ 410 nM) | 6.48e-05 ng/mL (≈ 0.000101 nM) | 19.2 n moles/Lt/mg protein |  |  | 
3 | CCCCCCCCCCCCCC[C@H]1OCO[C@@H]1CC[C@H](O)[C@@H]1CC[C@@H](CCCCC[C@@H](O)CC2=C[C@H](C)OC2=O)O1 [Compound 12, 17,18-formaldehyde acetal derivative] | 7.5 ng/mL (≈ 12.3 nM) | 69.5 ng/mL (≈ 114 nM) | 268 ng/mL (≈ 440 nM) |  | 290.3 n moles/Lt/mg protein |  |  | 
4 | CCCCCCCCCC[C@@H](O)[C@H]1CC[C@H]([C@H](O)CC[C@H](O)[C@@H]2CC[C@@H](CCCCCCC[C@@H]3CC(CC(C)=O)C(=O)O3)O2)O1 (stereo partly drawn) [Compound 24, (2,4-Cis and trans)bullatanocinones, reference compound] | 280 ng/mL (≈ 438 nM) |  |  |  | 61.1 n moles/Lt/mg protein | 0.643 ng/mL (≈ 1.01 nM) | 293 ng/mL (≈ 459 nM) | IC50 [4, 11]: 2.34e-05 ng/mL (≈ 3.66e-05 nM)
5 | CCCCCCCCCC[C@H](O)[C@H]1CC[C@H]([C@H](O)CC[C@H](O)[C@@H]2CC[C@@H](CCCCCCC[C@@H]3CC(CC(C)=O)C(=O)O3)O2)O1 (stereo partly drawn) [Compound 26, (2,4-Cis and trans)-bullatalicinones, reference compound] | 470 ng/mL (≈ 736 nM) |  |  |  | 23.0 n moles/Lt/mg protein | 0.0562 ng/mL (≈ 0.088 nM) | 1.57 ng/mL (≈ 2.46 nM) | 
6 | CCCCCCCCCCC(O)C1CCC(C2CCC(C(O)CCCCC(O)CCCCCCCC3=CC(C)OC3=O)O2)O1 (stereo not drawn) [Compound 1, Bullatin] |  |  |  |  |  |  |  | LC50 ([1]; Table 5, brine shrimp larvae): 4 ng/mL (≈ 6.42 nM); IC50 ([2]; read-out: A-549 LC50): 0.00939 ng/mL (≈ 0.0151 nM); IC50 [3, 12]: 0.00833 ng/mL (≈ 0.0134 nM); mitochondrial inhibition (rat liver mitochondria): high activity; IC50 [5]: 0.00378 ng/mL (≈ 0.00607 nM)
7 | CCCCCCCCCCCCCC[C@@H](O)[C@H]1CC[C@H]([C@H]2CC[C@@H](CCCCC[C@@H](O)CC3=C[C@H](C)OC3=O)OCO2)O1 [Compound 9, 10,13-Formaldehyde acetal derivative of goniothalamicin] | 53.8 ng/mL (≈ 88.4 nM) | 1050 ng/mL (≈ 1720 nM) | 0.409 ng/mL (≈ 0.672 nM) | 0.0219 ng/mL (≈ 0.036 nM) | 203.1 n moles/Lt/mg protein |  |  | 
8 | CCCCCCCCCC[C@@H](O)[C@H]1CC[C@H]([C@H]2CC[C@@H]([C@@H]3CC[C@@H](CCCCCCC[C@@H]4CC(CC(C)=O)C(=O)O4)O3)OCO2)O1 (stereo partly drawn) [Compound 25, 16,19-Formaldehyde acetal derivatives of (2,4-cis and trans)-bullatanocinones] | 15 ng/mL (≈ 23 nM) | 0.0677 ng/mL (≈ 0.104 nM) | 1280 ng/mL (≈ 1970 nM) |  | 28.3 n moles/Lt/mg protein |  |  | 
9 | COc1cccc2c1C(=O)c1c(O)c3c(c(O)c1C2=O)C[C@@](O)(C(=O)CO)C[C@@H]3O[C@H]1C[C@H](N)[C@H](O)[C@H](C)O1 [Adriamycin, adriamycin, reference compound] | 80 ng/mL (≈ 147 nM) |  |  |  |  | 4.19 ng/mL (≈ 7.71 nM) | 401 ng/mL (≈ 738 nM) | LC50 ([1]; Table 5, brine shrimp larvae): 257 ng/mL (≈ 473 nM); LC50 ([1]; Table 12): 80 ng/mL (≈ 147 nM); IC50 ([2]; read-out: A-549 LC50): 0.104 ng/mL (≈ 0.191 nM); EC50 ([2]; A549, read-out: A-549): 8.5 ng/mL (≈ 15.6 nM); IC50 [3, 12]: 17.6 ng/mL (≈ 32.4 nM); IC50 ([3]; read-out: MCF-7 LC50, Table 12, same run): 231 ng/mL (≈ 425 nM); EC50 ([3]; MCF7, read-out: MCF-7): 519 ng/mL (≈ 955 nM); IC50 [4, 11]: 35.5 ng/mL (≈ 65.3 nM); IC50 ([4]; read-out: HT-29 LC50, Table 12, same run): 39.2 ng/mL (≈ 72.1 nM); EC50 ([4]; HT-29, read-out: HT-29): 37.2 ng/mL (≈ 68.4 nM); IC50 [5]: 0.153 ng/mL (≈ 0.281 nM)
10 | CCCCCCCCCC[C@H](O)[C@H]1CC[C@H]([C@H]2CC[C@H]([C@H](O)CCCCCCCCCC[C@@H](O)CC3=C[C@H](C)OC3=O)O2)O1 [Bullatacin, reference compound] |  |  |  |  |  |  |  | mitochondrial inhibition (rat liver mitochondria): high activity; tumor growth inhibition (TGI) [6]: 67%
